Measured values: patent US8524909B2, “Tetrahydro-pyran derivatives” (Hoffmann-La Roche Inc., priority 2010, dated 2013)

Target: mGlyT-1b (Mus musculus (Mouse), UniProt P28571)
Test: Glycine Uptake Inhibition Assay (mGlyT-1b)
Format: cell-based
Conditions: [3H]-glycine uptake in Flp-in-CHO cells stably transfected with mGlyT1b cDNA; 20 min preincubation at 22° C.
Experimental: DMEM complete medium: Nutrient mixture F-12 (Gibco Life-technologies), fetal bovine serum (FBS) 5%, (Gibco life technologies), Penicillin/Streptomycin 1% (Gibco life technologies), Hygromycin 0.6 mg/ml (Gibco life technologies), Glutamine 1 mM Gibco life technologies)
Uptake buffer (UB): 150 mM NaCl, 10 mM Hepes-Tris, pH 7.4, 1 mM CaCl2, 2.5 mM KCl, 2.5 mM MgSO4, 10 mM (+) D-glucose.
Flp-in™-CHO (Invitrogen Cat no R758-07) cells stably transfected with mGlyT1b cDNA.
Glycine Uptake Inhibition Assay (mGlyT-1b)
On day 1 mammalian cells, (Flp-in™-CHO), transfected with mGlyT-1b cDNA, were plated at the density of 40,000 cells/well in complete F-12 medium, without hygromycin in 96-well culture plates. On day 2, the medium was aspirated and the cells were washed twice with uptake buffer (UB). The cells were then incubated for 20 min at 22° C. with either (i) no potential competitor, (ii) 10 mM non-radioactive glycine, (iii) a concentration of a potential inhibitor. A range of concentrations of the potential inhibitor was used to generate data for calculating the concentration of inhibitor resulting in 50% of the effect (e.g. IC50, the concentration of the competitor inhibiting glycine uptake of 50%). A solution was then immediately added containing [^3H]-glycine 60 nM (11-16 Ci/mmol) and 25 μM non-radioactive glycine. The plates were incubated with gentle shaking and the reaction was stopped by aspiration of the mixture and washing (three times) with ice-cold UB. The cells were lysed with scintillation liquid, shaken 3 hours and the radioactivity in the cells was counted using a scintillation counter.

mGlyT-1b, sequence (P28571 other isoform, or with tags, fused parts or gaps isoform P28571-2): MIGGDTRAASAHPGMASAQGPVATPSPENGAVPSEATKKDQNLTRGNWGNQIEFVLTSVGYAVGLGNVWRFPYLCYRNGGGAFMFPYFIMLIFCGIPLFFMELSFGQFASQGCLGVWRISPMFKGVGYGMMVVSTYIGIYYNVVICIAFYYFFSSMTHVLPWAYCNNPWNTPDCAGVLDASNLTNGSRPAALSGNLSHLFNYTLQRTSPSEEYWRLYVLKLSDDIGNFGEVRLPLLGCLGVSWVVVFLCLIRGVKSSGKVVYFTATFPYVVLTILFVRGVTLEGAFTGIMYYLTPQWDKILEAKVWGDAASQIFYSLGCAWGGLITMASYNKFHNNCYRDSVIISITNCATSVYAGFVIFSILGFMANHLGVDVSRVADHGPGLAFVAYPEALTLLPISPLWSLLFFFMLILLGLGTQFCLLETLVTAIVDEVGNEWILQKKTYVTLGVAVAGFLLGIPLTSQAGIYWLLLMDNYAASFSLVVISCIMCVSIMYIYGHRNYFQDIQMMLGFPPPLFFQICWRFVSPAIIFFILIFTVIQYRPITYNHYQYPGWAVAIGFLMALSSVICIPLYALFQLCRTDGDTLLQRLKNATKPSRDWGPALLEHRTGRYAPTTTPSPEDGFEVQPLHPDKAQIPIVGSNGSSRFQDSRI

SMILES | IC50
CSc1cc(C(F)(F)F)cc(C(F)(F)F)c1C(=O)N[C@@H]1COCC[C@H]1NC1CCCC1 (racemic) [Example 13, N-((3SR,4RS)-4-Cyclopentylamino-tetrahydro-pyran-3-yl)-2-methylsulfanyl-4,6-bis-trifluoromethyl-benzamide] | 250 nM
COc1cc(C(F)(F)F)cc(C2CC2)c1C(=O)N[C@H]1COCC[C@@H]1N1CCCC1 [Example 57] | 62.5 nM
Cc1cc(C(F)(F)F)cc(C(F)(F)F)c1C(=O)N[C@H]1COCC[C@@H]1N1CCCC1 [Example 39, (+)-2-Methyl-N-trans-(4-pyrrolidin-1-yl-tetrahydro-pyran-3-yl)-4,6-bis-trifluoro-methyl-benzamide] | 43.9 nM
O=C(N[C@@H]1COCC[C@H]1N1CCC(O)CC1)c1ccc(C(F)(F)F)cc1C1CC1 (racemic) [Example 36] | 274 nM
CC(N[C@@H]1CCOC[C@H]1NC(=O)c1ccc(C(F)(F)F)cc1C1CC1)C1CC1 (mixture of isomers) [Example 30, 2-Cyclopropyl-N-[(3RS,4SR)-4-(1-cyclopropyl-ethylamino)-tetrahydro-pyran-3-yl]-4-trifluoro-methylbenzamide] | 83.8 nM
CSc1cc(C(F)(F)F)cc(C(F)(F)F)c1C(=O)N[C@H]1COCC[C@@H]1N1CCCC1 [Example 41, (+)-2-Methylsulfanyl-N-trans-(4-pyrrolidin-1-yl-tetrahydro-pyran-3-yl)-4,6-bis-trifluoromethyl-benzamide] | 44.7 nM
CCc1cc(C(F)(F)F)cc(C)c1C(=O)N[C@@H]1COCC[C@H]1N1CCCC1 (racemic) [Example 26, 2-Ethyl-6-methyl-N-((3SR,4RS)-4-pyrrolidin-1-yl-tetrahydro-pyran-3-yl)-4-trifluoro-methyl-benzamide] | 17.9 nM
O=C(N[C@@H]1COCC[C@H]1NC1CCCCC1)c1ccc(C(F)(F)F)cc1C1CC1 (racemic) [Example 14, N-((3SR,4RS)-4-Cyclohexylamino-tetrahydro-pyran-3-yl)-2-cyclopropyl-4-trifluoromethyl-benzamide] | 125 nM
COc1cc(C(F)(F)F)cc(C)c1C(=O)N[C@@H]1COCC[C@H]1N1CCCC1 (racemic) [Example 22, 2-Methoxy-6-methyl-N-((3SR,4RS)-4-pyrrolidin-1-yl-tetrahydro-pyran-3-yl)-4-trifluoro-methylbenzamide] | 105 nM
O=C(N[C@H]1COCC[C@@H]1NC1CCCCC1)c1ccc(C(F)(F)F)cc1C1CC1 [Example 50] | 57 nM
O=C(N[C@@H]1COCC[C@H]1N1CCCC1)c1ccc(C(F)(F)F)cc1C1CC1 [Example 37, (+)-2-Cyclopropyl-N-(4-pyrrolidin-1-yl-tetrahydro-pyran-3-yl)-4-trifluoromethyl-benzamide] | 83.4 nM
O=C(N[C@@H]1COCC[C@H]1N1C[C@H]2C[C@H]2C1)c1ccc(C(F)(F)F)cc1C1CC1 [Example 35, N-[(3S,4R)-4-(3-Aza-bicyclo[3.1.0]hex-3-yl)-tetra-hydro-pyran-3-yl]-2-cyclopropyl-4-trifluoromethyl-benzamide] | 26.5 nM
COc1cc(C(F)(F)F)cc(SC)c1C(=O)N[C@@H]1COCC[C@H]1NC1CCC(O)CC1 (mixture of isomers) [Example 33, N-[(3SR,4RS)-4-(4-Hydroxy-cyclohexylamino)-tetrahydro-pyran-3-yl]-2-methoxy-6-methylsulfanyl-4-trifluoromethyl-benzamide] | 751 nM
O=C(N[C@H]1COCC[C@@H]1N1CCCC1)c1ccc(C(F)(F)F)cc1C1CC1 [Example 38, (−)-2-Cyclopropyl-N-(4-pyrrolidin-1-yl-tetrahydro-pyran-3-yl)-4-trifluoromethyl-benzamide] | 83.4 nM
COc1cc(C(F)(F)F)cc(SC)c1C(=O)N[C@@H]1CCOC[C@@H]1N1CCCC1 [Example 65, (+)-2-Methoxy-6-methylsulfanyl-N-(3-pyrrolidin-1-yl-tetrahydro-pyran-4-yl)-4-trifluoro-methyl-benzamide] | 119 nM
